# pIC50: −log10 of the molar value.
# System: NCI-H1618 multicellular tumor spheroid viability
# Experiment: Anticancer human tumor NCI-H1618 cell line growth inhibition;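 note: spheroids exposed to agents for 7 days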
# Conditions: for pIC50: curve of first compound; for viability, T/C: stronger effect = lower value
# Procedure, shortened: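 Complex spheroids of malignant cells with endothelial cells and mesenchymal stem cells; agents alone or combined, from near clinical Cmax (or 10 microM if unknown) down in half-log steps, 0.25% DMSO final.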
# [1] = second compound 30 pM, first compound 0.0316 µM
# [2] = second compound 30 pM, first compound 0.1 µM
# [3] = second compound 30 pM, first compound 0.316 µM
# [4] = second compound 30 pM, first compound 1 µM
# [5] = second compound 30 pM, first compound 3.16 µM
# [6] = second compound 30 pM, first compound 10 µM
# [7] = second compound 94.9 pM, first compound 0.0316 µM
# [8] = second compound 94.9 pM, first compound 0.1 µM
# [9] = second compound 94.9 pM, first compound 0.316 µM
# [10] = second compound 94.9 pM, first compound 1 µM
# [11] = second compound 94.9 pM, first compound 3.16 µM
# [12] = second compound 94.9 pM, first compound 10 µM
# [13] = second compound 0.0003 µM, first compound 0.0316 µM
# [14] = second compound 0.0003 µM, first compound 0.1 µM
# [15] = second compound 0.0003 µM, first compound 0.316 µM
# [16] = second compound 0.0003 µM, first compound 1 µM
# [17] = second compound 0.0003 µM, first compound 3.16 µM
# [18] = second compound 0.0003 µM, first compound 10 µM
# [19] = second compound 0.000949 µM, first compound 0.0316 µM
# [20] = second compound 0.000949 µM, first compound 0.1 µM
# [21] = second compound 0.000949 µM, first compound 0.316 µM
# [22] = second compound 0.000949 µM, first compound 1 µM
# [23] = second compound 0.000949 µM, first compound 3.16 µM
# [24] = second compound 0.000949 µM, first compound 10 µM
# [25] = second compound 0.003 µM, first compound 0.0316 µM
# [26] = second compound 0.003 µM, first compound 0.1 µM
# [27] = second compound 0.003 µM, first compound 0.316 µM
# [28] = second compound 0.003 µM, first compound 1 µM
# [29] = second compound 0.003 µM, first compound 3.16 µM
# [30] = second compound 0.003 µM, first compound 10 µM
Compound,pIC50 (second compound 30 pM),pIC50 (second compound 94.9 pM),pIC50 (second compound 0.0003 µM),pIC50 (second compound 0.000949 µM),pIC50 (second compound 0.003 µM),"viability, T/C [1]","viability, T/C [2]","viability, T/C [3]","viability, T/C [4]","viability, T/C [5]","viability, T/C [6]","viability, T/C [7]","viability, T/C [8]","viability, T/C [9]","viability, T/C [10]","viability, T/C [11]","viability, T/C [12]","viability, T/C [13]","viability, T/C [14]","viability, T/C [15]",further results
CC1COCCN1c1cc(-c2ccnn2C)c2ccnc(-c3ccn[nH]3)c2n1 (stereo not given) + COc1cc2c(cc1O)CCNC21CSC2c3c(OC(C)=O)c(C)c4c(c3C(COC1=O)N1C(O)C3Cc5cc(C)c(OC)c(O)c5C(C21)N3C)OCO4,> 7.50,> 7.50,> 7.50,> 7.50,> 7.50,41%,8.59%,2.6%,1.69%,1.44%,1.07%,4.76%,7.64%,1.66%,2.1%,0.97%,1.13%,7.32%,1.52%,2.44%,"viability, T/C [16]: 1.22%; viability, T/C [17]: 1.2%; viability, T/C [18]: 1.07%; viability, T/C [19]: 1.86%; viability, T/C [20]: 2.16%; viability, T/C [21]: 1.58%; viability, T/C [22]: 1.26%; viability, T/C [23]: 1.11%; viability, T/C [24]: 1.22%; viability, T/C [25]: 1.5%; viability, T/C [26]: 1.77%; viability, T/C [27]: 2.41%; viability, T/C [28]: 2.07%; viability, T/C [29]: 1.2%; viability, T/C [30]: 1.35%"
COc1cc(C)[nH]c(=O)c1CN1CCc2c(Cl)cc(C(OC)C3COC3)c(Cl)c2C1=O (stereo not given) + COc1cc2c(cc1O)CCNC21CSC2c3c(OC(C)=O)c(C)c4c(c3C(COC1=O)N1C(O)C3Cc5cc(C)c(OC)c(O)c5C(C21)N3C)OCO4,< 5.00,6.28,> 7.50,> 7.50,> 7.50,73.8%,74.9%,61.7%,73.8%,74.4%,67.9%,86.8%,65.9%,48.3%,57.5%,31.9%,38.4%,14.9%,19.3%,5.64%,"viability, T/C [16]: 2.68%; viability, T/C [17]: 1.81%; viability, T/C [18]: 3.33%; viability, T/C [19]: 5.55%; viability, T/C [20]: 2.33%; viability, T/C [21]: 3.62%; viability, T/C [22]: 3.05%; viability, T/C [23]: 3.08%; viability, T/C [24]: 3.38%; viability, T/C [25]: 3.07%; viability, T/C [26]: 2.73%; viability, T/C [27]: 3.33%; viability, T/C [28]: 2.29%; viability, T/C [29]: 1.94%; viability, T/C [30]: 2.51%"
Cc1cc(C)c(CNC(=O)c2cc(-c3ccc(CN4CCOCC4)cc3)cc3c2cnn3C2CCCC2)c(=O)[nH]1 + COc1cc2c(cc1O)CCNC21CSC2c3c(OC(C)=O)c(C)c4c(c3C(COC1=O)N1C(O)C3Cc5cc(C)c(OC)c(O)c5C(C21)N3C)OCO4,< 5.00,5.75,> 7.50,> 7.50,> 7.50,92.5%,86.8%,89.7%,72.7%,88%,58.6%,46.9%,66.5%,66.9%,55%,45.7%,44.2%,2.47%,10.3%,4.67%,"viability, T/C [16]: 5.71%; viability, T/C [17]: 2.43%; viability, T/C [18]: 2.6%; viability, T/C [19]: 4.74%; viability, T/C [20]: 7.05%; viability, T/C [21]: 2.83%; viability, T/C [22]: 3.43%; viability, T/C [23]: 3.12%; viability, T/C [24]: 2.59%; viability, T/C [25]: 2.14%; viability, T/C [26]: 3%; viability, T/C [27]: 3.25%; viability, T/C [28]: 4.16%; viability, T/C [29]: 3.95%; viability, T/C [30]: 1.24%"
[2H]c1nc(C)nc([2H])c1-c1cc(NC[C@@H](C)c2cccc3c(C(=O)NC)ccnc23)ncn1 + COc1cc2c(cc1O)CCNC21CSC2c3c(OC(C)=O)c(C)c4c(c3C(COC1=O)N1C(O)C3Cc5cc(C)c(OC)c(O)c5C(C21)N3C)OCO4,< 5.00,6.60,> 7.50,> 7.50,> 7.50,101%,93.8%,87.8%,103%,93.9%,83.3%,90.6%,61.4%,24.4%,55.4%,52.7%,55.7%,5.13%,2.89%,3.41%,"viability, T/C [16]: 5.38%; viability, T/C [17]: 18.8%; viability, T/C [18]: 3.93%; viability, T/C [19]: 3.46%; viability, T/C [20]: 3.49%; viability, T/C [21]: 3.75%; viability, T/C [22]: 4.59%; viability, T/C [23]: 4.63%; viability, T/C [24]: 4.69%; viability, T/C [25]: 2.53%; viability, T/C [26]: 3.55%; viability, T/C [27]: 4.4%; viability, T/C [28]: 3.2%; viability, T/C [29]: 1.87%; viability, T/C [30]: 5.37%"

# — PubChem BioAssay AID1845206 (Molecular Pharmacology Branch, DTP, NCI, 2023)
